Like-named read-outs stand apart in the source and are kept apart here.
How the values were obtained:
M4R = target: T1, M4R (Homo sapiens, UniProt P08173); assay: Ca2+ flux assay in CHO-K1 cells expressing human M4R; format: cell-based; set-up: expressed in transfected cells; host or cells: CHO-K1; conditions: read-out: IP for M4R
T1 sequence (P08173 1-479): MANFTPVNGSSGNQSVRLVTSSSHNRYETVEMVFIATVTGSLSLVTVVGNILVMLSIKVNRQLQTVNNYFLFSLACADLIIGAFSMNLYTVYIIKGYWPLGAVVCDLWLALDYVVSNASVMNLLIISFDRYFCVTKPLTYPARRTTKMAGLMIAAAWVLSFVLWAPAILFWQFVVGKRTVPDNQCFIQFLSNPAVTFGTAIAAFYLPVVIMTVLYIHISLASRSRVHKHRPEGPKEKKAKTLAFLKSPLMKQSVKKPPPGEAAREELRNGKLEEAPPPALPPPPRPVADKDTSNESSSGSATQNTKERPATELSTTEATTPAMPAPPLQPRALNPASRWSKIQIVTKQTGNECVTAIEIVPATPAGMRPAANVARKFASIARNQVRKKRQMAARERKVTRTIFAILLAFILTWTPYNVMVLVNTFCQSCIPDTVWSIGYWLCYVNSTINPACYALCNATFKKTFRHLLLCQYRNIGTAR

human M1R = target: T2, human M1R (Homo sapiens, UniProt P11229); assay: Ca2+ flux assay in CHO-K1 cells expressing human M1 receptors (EC20 ACh); format: cell-based; set-up: expressed in transfected cells; conditions: for EC50: potentiating EC20 ACh, read-out: IP value for human M1R
T2 sequence (P11229 1-460): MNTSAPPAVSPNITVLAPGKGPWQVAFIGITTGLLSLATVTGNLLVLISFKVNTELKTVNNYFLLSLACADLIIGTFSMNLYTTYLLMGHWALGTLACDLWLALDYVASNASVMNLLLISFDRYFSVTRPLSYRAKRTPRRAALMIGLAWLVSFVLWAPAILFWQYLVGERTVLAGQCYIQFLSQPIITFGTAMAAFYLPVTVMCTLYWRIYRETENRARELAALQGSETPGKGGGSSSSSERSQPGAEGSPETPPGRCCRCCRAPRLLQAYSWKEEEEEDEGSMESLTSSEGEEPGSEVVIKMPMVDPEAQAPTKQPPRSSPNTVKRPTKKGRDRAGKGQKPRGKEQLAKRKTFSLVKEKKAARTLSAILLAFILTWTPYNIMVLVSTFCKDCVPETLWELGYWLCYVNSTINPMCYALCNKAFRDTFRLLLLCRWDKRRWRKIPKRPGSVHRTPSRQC
Experimental: CHO-K1 cells expressing human M1 receptors were plated on a 96-well black clear bottom plate (Corning, New York, NY) at 30,000 cells/well, and cultured at 37° C. and 5% CO2 for 1 day. The medium was removed and the cells were incubated with calcium dye buffer (HBSS (Life Technologies, Carlsbad, CA), 20 mM HEPES (Life Technologies), 0.1% fatty acid-free BSA (Wako), 0.08% pluronic F127 (Dojindo Laboratories, Kumamoto, Japan), 2.5 μg/mL Fluo-4 (Dojindo Laboratories), 1.25 mM probenecid (Dojindo Laboratories)) for 30 min at 37° C. and 5% CO2. After 30 min incubation at room temperature, the cells were stimulated with various concentrations of test compounds dissolved in assay buffer (HBSS (Life Technologies), 20 mM HEPES (Life Technologies), 0.1% fatty acid-free BSA (Wako)) containing EC20 concentrations (0.8-1 nM) of ACh and Ca^2+ response was measured using CeilLux (PerkinElmer). For determination of positive allosteric modulation activity of M1PAMs, the response to EC20 ACh was set as the 0% response and the response to 10 μM ACh was set as the 100% response. The potency of M1PAMs was shown as the value of inflection point (IP). IP value and 95% confidence intervals were calculated by XLfit of GraphPad Prism 5 Software (GraphPad Software Inc., LaJolla, CA, USA) from the data expressed as % of control.

M3R = M3R (Homo sapiens, UniProt P20309); assay: Ca2+ flux assay in CHO-K1 cells expressing human M3R; format: cell-based; set-up: expressed in transfected cells; host or cells: CHO-K1; conditions: read-out: IP for M3R
[1] = tested on: IP1 production in the hippocampus; assay: In vivo IP1 assay, hippocampus of wild-type and M1R KO mice; set-up: species or system mouse
Source text: Hippocampus was isolated from the brain.

[2] = tested on: scopolamine-induced cognitive deficits in rats; assay: Novel object recognition task (NORT), scopolamine-induced memory deficits; format: in vivo, rat; conditions: for minimal efficacy dose in rats (cognitive improvement): NORT, p.o.; for minimal efficacy dose in rats (cognitive improvement) / NDI: scopolamine-treated rats
Experimental: On the day before testing, Long Evans rats were allowed to habituate to the behavioral test room environment for over 1 h, and then they were allowed to habituate to the empty test box (a gray-colored polyvinyl chloride box (40×40×50 cm)) for 10 min individually. Testing was comprised of two 3-min trials called the acquisition and the retention trials. These trials were separated by a given inter-trial interval (ITI). On the testing day, in the acquisition trial, rats were allowed to explore two identical objects (A1 and A2) for 3 min. In the retention trial, rats were again allowed to explore a familiar object (A3) and a novel object (B) for 3 min. The object exploration was defined as rats' licking, sniffing or touching the object with limbs while sniffing. Leaning against the object to look upward, standing or sitting on the object was excluded. The exploration time of each object (A1, A2, A3 and B) in each trial was measured manually. Novel discrimination index (NDI) was calculated using the following equation: novel object interaction/total interaction×100(%).
The acquisition and the retention trials were separated by 4 h ITI. […] Scopolamine (0.1 mg/kg) was administered subcutaneously 30 min prior to the acquisition trial.
(§1) The acquisition and the retention trials were separated by 4 h ITI.
as §1

[3] = Plasma and brain concentration in samples of in vivo IP1 assay; set-up: species or system mouse; conditions: for concentration at 3 h: mouse, oral, mean±SD
Experimental: Plasma and brain concentration of Compound D in sample of in vivo IP1 assay at 3 h after oral treatment. Results represent the mean±SD. n=10 per group.
Plasma and brain concentration of Compound C in sample of in vivo IP1 assay at 3 h after oral treatment. Results represent the mean±SD. n=10 per group.

Chain of M3R (P20309 whole entry): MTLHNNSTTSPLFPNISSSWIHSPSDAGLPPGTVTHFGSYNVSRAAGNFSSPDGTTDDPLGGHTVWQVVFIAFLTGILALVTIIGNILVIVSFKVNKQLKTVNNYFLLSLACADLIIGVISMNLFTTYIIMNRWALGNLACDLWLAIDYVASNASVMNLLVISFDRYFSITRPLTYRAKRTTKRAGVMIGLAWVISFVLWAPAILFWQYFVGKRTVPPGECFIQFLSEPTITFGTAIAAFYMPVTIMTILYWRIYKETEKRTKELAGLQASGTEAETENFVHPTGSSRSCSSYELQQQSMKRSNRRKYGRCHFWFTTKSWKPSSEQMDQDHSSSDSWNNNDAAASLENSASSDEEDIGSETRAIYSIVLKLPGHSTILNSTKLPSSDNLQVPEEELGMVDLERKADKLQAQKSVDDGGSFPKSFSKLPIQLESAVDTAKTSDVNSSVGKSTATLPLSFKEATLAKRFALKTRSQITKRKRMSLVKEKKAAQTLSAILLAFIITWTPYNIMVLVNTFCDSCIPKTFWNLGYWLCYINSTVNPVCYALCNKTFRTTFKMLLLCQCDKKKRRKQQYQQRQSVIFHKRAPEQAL

## Cn1cc(-c2ccc(Cc3cc4c(=O)n([C@H]5CCCC[C@@H]5O)cnc4c4ccccc34)cn2)cn1 [Compound C, 3-((1S,2S)-2-hydroxycyclohexyl)-6-((6-(1-methyl-1H-pyrazol-4-yl)pyridin-3-yl)methyl)benzo[h]quinazoline-4(3H)-one, reference compound]
M4R
  EC50: > 1000 nM
Human M1R
  EC50: 0.62 nM
M3R
  EC50: > 1000 nM
[1]; M1R KO mice, 10 mg/kg p.o.
  IP1 production in the hippocampus: not in M1R KO mice
[1]; wild-type mice, 10 mg/kg p.o.
  IP1 production in the hippocampus: significantly induced IP1 production
[2]; 0.1 and 0.3 mg/kg p.o., rats, P≤0.025
  scopolamine-induced cognitive deficits in NORT: significantly ameliorated scopolamine-induced cognitive deficits
[2]
  minimal efficacy dose in rats (cognitive improvement): 0.1 mg/kg
[2]; Compound C 0.03 mg/kg p.o. alone, Example 29
  NDI: 52.3%
[3]; 10 mg/kg p.o.
  differences in brain concentration between wild-type and M1R KO mice: No significant differences
[3]; brain, 10 mg/kg, 10 mg/kg p.o., M1KO mice, read-out: Brain concentration
  concentration at 3 h: 62.7 ± 9.1 ng/g
[3]; brain, 10 mg/kg, 10 mg/kg p.o., wild-type mice, read-out: Brain concentration
  concentration at 3 h: 63.7 ± 16.8 ng/g
[3]; plasma, 10 mg/kg, 10 mg/kg p.o., M1KO mice, read-out: Plasma concentration
  concentration at 3 h: 6130 ± 1160 ng/mL
[3]; plasma, 10 mg/kg, 10 mg/kg p.o., wild-type mice, read-out: Plasma concentration
  concentration at 3 h: 2340 ± 628 ng/mL

## Cc1c(Cc2ccc(-n3cccn3)cc2)cc2c(c1F)CN([C@H]1COCC[C@@H]1O)C2=O [Compound D, 4-fluoro-2-[(3S,4S)-4-hydroxytetrahydro-2H-pyran-3-yl]-5-methyl-6-[4-(1H-pyrazol-1-yl)benzyl]-2,3-dihydro-1H-isoindol-1-one]
M4R
  EC50: > 10000 nM
Human M1R
  EC50: 2.7 nM
Human M1R; vs M2-M5R
  M1R selectivity over other human muscarinic receptor subtypes: not less than 3700 fold
M3R
  EC50: > 10000 nM
[1]; M1R KO mice, 3 mg/kg p.o.
  IP1 production in the hippocampus: did not induce IP1 production
[1]; wild-type mice, 3 mg/kg p.o., 3 h, % of vehicle-treated control
  IP1 production in the hippocampus: 153.3±9.3%
[2]; 0.3, 1, and 3 mg/kg p.o., rats, P≤0.025
  NDI in NORT, scopolamine-induced deficits: significantly increased NDI
[2]
  minimal efficacy dose in rats (cognitive improvement): 0.3 mg/kg
[2]; 0.1 mg/kg p.o. alone, Example 28
  NDI: 54.1%
[2]; Compound D 0.1 mg/kg p.o. alone, Example 31
  NDI: 56.8%
[3]; 3 mg/kg p.o.
  differences in PK profile between wild-type and M1R KO mice: No significant differences
[3]; brain, 3 mg/kg, 3 mg/kg p.o., M1KO mice, read-out: Brain concentration
  concentration at 3 h: 370 ± 50 ng/g
[3]; brain, 3 mg/kg, 3 mg/kg p.o., wild-type mice, read-out: Brain concentration
  concentration at 3 h: 350 ± 80 ng/g
[3]; plasma, 3 mg/kg, 3 mg/kg p.o., M1KO mice, read-out: Plasma concentration
  concentration at 3 h: 3260 ± 260 ng/mL
[3]; plasma, 3 mg/kg, 3 mg/kg p.o., wild-type mice, read-out: Plasma concentration
  concentration at 3 h: 3110 ± 490 ng/mL

Source: US12298319B2, “Method for measuring alpha value of muscarinic M1 receptor positive allosteric modulators” (Takeda Pharmaceutical Company Limited, priority 2017, dated 2025)
